Drawing on patent US20210198277A1, “AMINE-SUBSTITUTED ARYL OR HETEROARYL COMPOUNDS” (Epizyme, Inc., priority 2016, published 2021), this text covers IC50 for 35 molecules.

In this test the target is T1, EHMT1 (Homo sapiens, UniProt Q9H9B1).
T1 sequence (Q9H9B1 1-1298): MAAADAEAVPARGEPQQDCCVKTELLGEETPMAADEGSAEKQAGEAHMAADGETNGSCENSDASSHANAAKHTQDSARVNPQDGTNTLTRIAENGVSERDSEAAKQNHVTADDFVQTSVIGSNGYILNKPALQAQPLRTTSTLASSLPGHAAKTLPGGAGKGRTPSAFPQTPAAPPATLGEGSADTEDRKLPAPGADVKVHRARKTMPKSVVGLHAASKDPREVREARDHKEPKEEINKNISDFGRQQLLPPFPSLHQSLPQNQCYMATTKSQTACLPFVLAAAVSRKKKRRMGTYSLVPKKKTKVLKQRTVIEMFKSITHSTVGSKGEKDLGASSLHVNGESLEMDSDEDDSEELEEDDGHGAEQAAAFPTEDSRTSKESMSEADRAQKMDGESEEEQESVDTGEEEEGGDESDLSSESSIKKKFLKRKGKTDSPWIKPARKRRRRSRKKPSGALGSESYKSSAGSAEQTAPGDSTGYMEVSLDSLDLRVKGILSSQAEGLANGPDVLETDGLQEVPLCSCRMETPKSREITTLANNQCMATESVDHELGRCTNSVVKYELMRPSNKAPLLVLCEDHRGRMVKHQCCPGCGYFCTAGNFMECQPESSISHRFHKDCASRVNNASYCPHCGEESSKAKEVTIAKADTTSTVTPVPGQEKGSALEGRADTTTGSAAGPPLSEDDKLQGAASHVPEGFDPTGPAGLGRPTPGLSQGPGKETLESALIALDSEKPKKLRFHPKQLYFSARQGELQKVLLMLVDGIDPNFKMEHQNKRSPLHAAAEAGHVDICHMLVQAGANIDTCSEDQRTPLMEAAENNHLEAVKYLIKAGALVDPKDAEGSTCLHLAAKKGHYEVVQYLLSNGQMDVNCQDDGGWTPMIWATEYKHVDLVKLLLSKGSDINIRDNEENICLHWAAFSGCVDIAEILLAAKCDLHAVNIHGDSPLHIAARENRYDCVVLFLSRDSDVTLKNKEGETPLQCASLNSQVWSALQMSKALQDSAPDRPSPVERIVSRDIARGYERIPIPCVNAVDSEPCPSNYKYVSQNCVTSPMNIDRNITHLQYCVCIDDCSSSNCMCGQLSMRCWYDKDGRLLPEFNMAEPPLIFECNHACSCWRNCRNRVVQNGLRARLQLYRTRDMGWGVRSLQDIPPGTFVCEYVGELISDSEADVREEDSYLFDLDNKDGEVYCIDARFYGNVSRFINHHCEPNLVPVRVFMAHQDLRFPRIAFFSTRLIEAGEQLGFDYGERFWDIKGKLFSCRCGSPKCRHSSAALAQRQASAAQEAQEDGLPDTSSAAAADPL
Nature of the test: EHMT1 enzyme assay on peptide substrate (EHMT1 PEP). Format: biochemical. The following applies: Table III; read-out: EHMT1 PEP (IC50 μM).

Turning to `CNc1cc(C2CC2)nc(Nc2ccc(OC)c(OCCCN3CCCC3)c2)n1` [Compound 320, 6-cyclopropyl-N^2-(4-methoxy-3-(3-(pyrrolidin-1-yl)propoxy)phenyl)-N^4-methylpyrimidine-2,4-diamine], the IC50 is < 0.1 µM.

Take `CNc1cc(C)nc(Nc2ccc(OC)c(OCC3CCN(CC4CC4)CC3)c2)n1` [Compound 436, N^2-(3-((1-(cyclopropylmethyl)piperidin-4-yl)methoxy)-4-methoxyphenyl)-N^4,6-dimethylpyrimidine-2,4-diamine]: the IC50 is > 10 µM. Then `CNc1cc(C)nc(Nc2cc(OCCCN3CCCC3)c(OC)cn2)n1` [Compound 303, N^2-(5-methoxy-4-(3-(pyrrolidin-1-yl)propoxy)pyridin-2-yl)-N^4,6-dimethylpyrimidine-2,4-diamine], with 0.1 to 1 µM; and `CCOc1ccc(Nc2nccc(NC)n2)cc1OCC1CCN(C)C1` (centres unmarked) [Compound 431], with > 10 µM. Under `CNc1cc(C)nc(Nc2cc(OCCCN3CCCC3)c(OC)cc2F)n1` [Compound 302, N^2-(2-fluoro-4-methoxy-5-(3-(pyrrolidin-1-yl)propoxy)phenyl)-N^4,6-dimethylpyrimidine-2,4-diamine] stands 1 to 10 µM; under `COc1cnc(Nc2nc(C)cc3[nH]ccc23)cc1OCCCN1CCCC1` [Compound 310], 0.1 to 1 µM; under `CNc1cc(C)nc(Nc2ccc(OC)c(OCC3CCCO3)c2)n1` (centres unmarked) [Compound 452, N^2-(4-methoxy-3-((tetrahydrofuran-2-yl)methoxy)phenyl)-N^4,6-dimethylpyrimidine-2,4-diamine], 1 to 10 µM. Regarding `CNc1ccnc(Nc2ccc(OC)c(OC[C@H]3CN(C)C[C@@H]3C)c2)n1` (single isomer, unassigned) [Compound 439], the IC50 was in the range of 0.1 to 1 µM. For `CNc1cc(COC)nc(Nc2ccc(OC)c(OCCCN3CCCC3)c2)n1` [Compound 441, N^2-(4-methoxy-3-(3-(pyrrolidin-1-yl)propoxy)phenyl)-6-(methoxymethyl)-N^4-methylpyrimidine-2,4-diamine], the IC50 lay within 0.1 to 1 µM. Then `CNc1cc(C)nc(Nc2cc(F)c(OC)c(OCCCN3CCCC3)c2)n1` [Compound 301, N2-(3-fluoro-4-methoxy-5-(3-(pyrrolidin-1-yl)propoxy)phenyl)-N4,6-dimethylpyrimidine-2,4-diamine], with > 10 µM.

Turning to `CNc1ccnc(Nc2ccc(OC)c(OCCCN3CCC4(COC4)C3)c2)n1` [Compound 284], the IC50 was > 10 µM. Under `CNc1cc(C)nc(Nc2ccc(OC)c(OC3CCN(CC4CC4)CC3)c2)n1` [Compound 443] stands > 10 µM; under `CNc1ccnc(Nc2cccc(N3CC(N)CC3=O)c2)n1` (centres unmarked) [Compound 296], > 10 µM; under `CNc1cc(Nc2ccc(OC)c(OCCCN3CCCC3)c2)cc(C(F)(F)F)n1` [Compound 273], > 10 µM. Under `CNc1cc(Nc2cc(OCCCN3CCCC3)c(OC)cn2)cc(C)n1` [Compound 308, N^4-(5-methoxy-4-(3-(pyrrolidin-1-yl)propoxy)pyridin-2-yl)-N^2,6-dimethylpyridine-2,4-diamine] stands 0.1 to 1 µM; under `CNc1ccnc(Nc2cc(OCCCN3CCCC3)c(OC)cn2)c1` [Compound 305, N^2-(5-methoxy-4-(3-(pyrrolidin-1-yl)propoxy)pyridin-2-yl)-N^4-methylpyridine-2,4-diamine], < 0.1 µM; under `CNc1cc(C)nc(Nc2ccc(OC)c(OCC3CN(C)C3)c2)n1` [Compound 442, N^2-(4-methoxy-3-((1-methylazetidin-3-yl)methoxy)phenyl)-N^4,6-dimethylpyrimidine-2,4-diamine], < 0.1 µM. Under `CNc1ccnc(Nc2ccc(OC)c(OCCCN3CCCC3C)c2)n1` (centres unmarked) [Compound 290, N^2-(4-methoxy-3-(3-(2-methylpyrrolidin-1-yl)propoxy)phenyl)-N^4-methylpyrimidine-2,4-diamine] stands 0.1 to 1 µM; under `CNc1cc(C)nc(Nc2ccc(OC)c(O[C@H]3C[C@@H](N(C)C)C3)c2)n1` (single isomer, unassigned) [Compound 317, N^2-(3-((1s,3s)-3-(dimethylamino)cyclobutoxy)-4-methoxyphenyl)-N^4,6-dimethylpyrimidine-2,4-diamine], > 10 µM.

On to `CNc1ccnc(Nc2ccc(OC)c(OCCCN3CCC(OC)C3)c2)n1` (centres unmarked) [Compound 283, N^2-(4-methoxy-3-(3-(3-methoxypyrrolidin-1-yl)propoxy)phenyl)-N^4-methylpyrimidine-2,4-diamine], for which the IC50 is < 0.1 µM.

Consider `CNc1ccnc(Nc2cccc(OCC(F)CN3CCCC3)c2)n1` (centres unmarked) [Compound 276, N^2-(3-(2-fluoro-3-(pyrrolidin-1-yl)propoxy)phenyl)-N^4-methylpyrimidine-2,4-diamine], for which the IC50 fell in the range of 1 to 10 µM. Then `CNc1cc(C)nc(Nc2ccc(OC)c(OCC3CCN(C4COC4)C3)c2)n1` (centres unmarked) [Compound 449, N^2-(4-methoxy-3-((1-(oxetan-3-yl)pyrrolidin-3-yl)methoxy)phenyl)-N^4,6-dimethylpyrimidine-2,4-diamine], with 0.1 to 1 µM; and `CCc1nc(Nc2ccc(OC)c(OCCCN3CCCC3)c2)nc(NC)c1F` [Compound 319, 6-ethyl-5-fluoro-N^2-(4-methoxy-3-(3-(pyrrolidin-1-yl)propoxy)phenyl)-N^4-methylpyrimidine-2,4-diamine], with 0.1 to 1 µM. As for `COc1ccc(Nc2nc(C)cc(O)n2)cc1OCCCN1CCCC1` [Compound 447, 2-((4-methoxy-3-(3-(pyrrolidin-1-yl)propoxy)phenyl)amino)-6-methylpyrimidin-4-ol], the IC50 is > 10 µM. Then `CNc1cc(Nc2cc(OCCCN3CCCC3)c(OC)cn2)nc(C)c1F` [Compound 309, 5-fluoro-N^2-(5-methoxy-4-(3-(pyrrolidin-1-yl)propoxy)pyridin-2-yl)-N^4,6-dimethylpyridine-2,4-diamine], with < 0.1 µM; and `CNc1cc(CC(F)(F)F)nc(Nc2ccc(OC)c(OCCCN3CCCC3)c2)n1` [Compound 428, N^2-(4-methoxy-3-(3-(pyrrolidin-1-yl)propoxy)phenyl)-N^4-methyl-6-(2,2,2-trifluoroethyl)pyrimidine-2,4-diamine], with 1 to 10 µM.

For `CNc1ccnc(Nc2ccc(OC)c(OCCCN3CCC(C(F)(F)F)C3)c2)n1` (centres unmarked) [Compound 285, N^2-(4-methoxy-3-(3-(3-(trifluoromethyl)pyrrolidin-1-yl)propoxy)phenyl)-N^4-methylpyrimidine-2,4-diamine], the IC50 was > 10 µM. Under `CNc1ccnc(Nc2ccc(OC)c(OC[C@H](O)CN3CCCC3)c2)n1` [Compound 299, (R)-1-(2-methoxy-5-((4-(methylamino)pyrimidin-2-yl)amino)phenoxy)-3-(pyrrolidin-1-yl)propan-2-ol] stands < 0.1 µM; under `CNc1ccnc(Nc2ccc(OC)c(OC[C@@H](O)CN3CCCC3)c2)n1` [Compound 300, (S)-1-(2-methoxy-5-((4-(methylamino)pyrimidin-2-yl)amino)phenoxy)-3-(pyrrolidin-1-yl)propan-2-ol], 0.1 to 1 µM; under `CNc1cc(Nc2cccc(COCCN3CCCC3)n2)ccn1` [Compound 268, N^2-methyl-N^4-(6-((2-(pyrrolidin-1-yl)ethoxy)methyl)pyridin-2-yl)pyridine-2,4-diamine], > 10 µM. For the molecule `CNc1ccnc(Nc2cccc(N3CCC(N(C)C)C3=O)c2)n1` (centres unmarked) [Compound 275], the IC50 is > 10 µM. As for `CNc1cc(Nc2ccc(OC)c(OCCCN3CCCC3)c2)ncc1F` [Compound 272, 5-fluoro-N^2-(4-methoxy-3-(3-(pyrrolidin-1-yl)propoxy)phenyl)-N^4-methylpyridine-2,4-diamine], the IC50 is 1 to 10 µM. Under `COc1ccc(Nc2cc(C)nc(O)n2)cc1OCCCN1CCCC1` [Compound 448, 4-((4-methoxy-3-(3-(pyrrolidin-1-yl)propoxy)phenyl)amino)-6-methylpyrimidin-2-ol] stands > 10 µM; under `CNc1ccnc(Nc2cccc(N3CCC(N)C3=O)c2)n1` (centres unmarked) [Compound 274], 1 to 10 µM; under `CNc1ccnc(Nc2ccc(OC)c(OCCC3CCCN3C)c2)n1` (centres unmarked) [Compound 288, N^2-(4-methoxy-3-(2-(1-methylpyrrolidin-2-yl)ethoxy)phenyl)-N^4-methylpyrimidine-2,4-diamine], 0.1 to 1 µM.
